Experimental data reported in DBAASP.
≈ marks a conversion by molar mass, not a printed value. Values belong to the compound of their own block, whether it stands above or below them.

Columns and labels:
Assay in all cases: ≥ marks a high value that may be exact or a test limit, other limits are often not marked, values filed in µg/mL are converted to µM
[1] = system: Escherichia coli ATCC 8739
[2] = system: Staphylococcus aureus ATCC 25923
[3] = system: Bacillus subtilis 168
[4] = system: Escherichia coli B
[5] = system: Pseudomonas aeruginosa
[6] = system: Staphylococcus aureus
[7] = system: Bacillus subtilis ATCC 6633
[8] = system: Candida albicans ATCC 90028
[9] = system: Staphylococcus aureus ATCC 43300
[10] = system: Staphylococcus aureus ATCC 6538
[11] = system: Pseudomonas aeruginosa ATCC 9027
[12] = system: Bacillus subtilis KCTC 3068
[13] = system: Escherichia coli KCTC 1682
[14] = system: Salmonella typhimurium KCTC 1926
[15] = system: Staphylococcus aureus KCTC 1621
[16] = system: Escherichia coli BL21
[17] = system: Acinetobacter baumannii
[18] = system: Enterococcus faecalis
[19] = system: Escherichia coli
[20] = system: Klebsiella pneumoniae
[21] = system: Staphylococcus epidermidis

MIC [1]: 14.7 µM (≈ 32 µg/mL) | MIC [2]: > 117 µM
SMILES: CC[C@H](C)[C@H](NC(=O)[C@H](CCCCN)NC(=O)[C@H](C)NC(=O)[C@@H](NC(=O)[C@@H](NC(=O)[C@H](CCCN=C(N)N)NC(=O)[C@H](C)NC(=O)[C@H](CC(C)C)NC(=O)[C@@H](NC(=O)[C@H](CCCCN)NC(=O)[C@H](C)NC(=O)[C@H](C)NC(=O)[C@H](Cc1ccccc1)NC(=O)[C@H](CC(C)C)NC(=O)[C@H](CCCCN)NC(=O)[C@H](CCCCN)NC(=O)[C@H](CCSC)NC(=O)[C@@H]1CCCN1)[C@@H](C)CC)C(C)C)C(C)C)C(=O)N[C@@H](Cc1c[nH]c2ccccc12)C(=O)O [PMKKLFAAKILARVVAKIW]

MIC [7]: 12.5 µM (≈ 38 µg/mL) | MIC [8]: ≥ 100 µM | MIC [1]: ≥ 100 µM | MIC [9]: 100 µM (≈ 304 µg/mL) | MIC [10]: 25 µM (≈ 75.9 µg/mL)
SMILES: CC[C@H](C)[C@@H]1NC(=O)[C@H](CCCCN)NC(=O)[C@@H](NC(=O)[C@H](CCCCN)NC(=O)[C@H](CC(C)C)NC(=O)[C@H](CCCCN)NC(=O)[C@H](CC(=O)O)NC(=O)[C@H](CC(C)C)NC(=O)[C@H](CC(C)C)NC(=O)[C@@H](NC(=O)[C@@H](NC(=O)[C@H](C)NC(=O)[C@@H](NC(=O)[C@H](CC(N)=O)NC(=O)[C@H](CCCCN)NC(=O)[C@H](C)NC(=O)[C@@H](NC(=O)[C@H](CC(N)=O)NC(=O)[C@H](CCCCN)NC(=O)[C@H](C)NC(=O)[C@@H](NC(=O)[C@H](CC(=O)O)NC(=O)[C@H](CCSC)NC(=O)[C@H](Cc2ccccc2)NC(=O)CN)[C@@H](C)O)C(C)C)C(C)C)C(C)C)[C@@H](C)O)CSSC[C@@H](C(=O)O)NC(=O)CNC(=O)CNC(=O)[C@H]([C@@H](C)O)NC1=O [GFMDTAKNVAKNVAVTLLDKLKCKITGGC]

MIC [11]: > 85.8 µM | MIC [10]: > 85.8 µM
SMILES: CC[C@H](C)[C@H](NC(=O)[C@H](CC(N)=O)NC(=O)[C@H](CCCN=C(N)N)NC(=O)CNC(=O)[C@H](CCSC)NC(=O)[C@H](CCCCN)NC(=O)[C@H](CCC(=O)O)NC(=O)[C@@H](NC(=O)[C@H](CCCCN)NC(=O)[C@H](CC(C)C)NC(=O)[C@H](Cc1ccccc1)NC(=O)[C@@H](NC(=O)[C@H](CCCCN)NC(=O)[C@H](CCC(=O)O)NC(=O)[C@H](CCCCN)NC(=O)[C@@H]1CCCN1C(=O)[C@@H](N)CCSC)C(C)C)[C@@H](C)CC)C(=O)N[C@@H](CCCN=C(N)N)C(=O)N[C@@H](CC(N)=O)C(N)=O [MPKEKVFLKIEKMGRNIRN]

MIC [3]: 0.62 µM (≈ 1.26 µg/mL) | MIC [4]: 1 µM (≈ 2.04 µg/mL) | MIC [5]: 22 µM (≈ 44.9 µg/mL) | MIC [6]: 40 µM (≈ 81.6 µg/mL)
SMILES: CC[C@H](C)[C@H](NC(=O)[C@H](CO)NC(=O)[C@H](CC(C)C)NC(=O)[C@H](Cc1ccccc1)NC(=O)CN)C(=O)N[C@@H](CC(C)C)C(=O)N[C@@H](CCCCN)C(=O)N[C@@H](CCCCN)C(=O)N[C@H](C(=O)N[C@@H](CC(C)C)C(=O)N1CCC[C@H]1C(=O)N[C@@H](CCCCN)C(=O)N[C@H](C(=O)N[C@@H](CCSC)C(=O)N[C@@H](C)C(=O)N[C@@H](Cc1cnc[nH]1)C(=O)N[C@@H](CCSC)C(=O)N[C@@H](CCCCN)C(N)=O)C(C)C)C(C)C [GFLSILKKVLPKVMAHMK]

MIC [7]: 25 µM (≈ 85.8 µg/mL) | MIC [1]: 12.5 µM (≈ 42.9 µg/mL) | MIC [10]: 6.3 µM (≈ 21.6 µg/mL)
SMILES: CC[C@H](C)[C@H](NC(=O)[C@H](C)NC(=O)[C@H](CC(C)C)NC(=O)[C@H](CC(=O)O)NC(=O)[C@H](CCCCN)NC(=O)[C@H](Cc1ccccc1)NC(=O)[C@@H](NC(=O)[C@@H](NC(=O)[C@H](CC(C)C)NC(=O)[C@H](Cc1ccccc1)NC(=O)[C@@H](N)CO)[C@@H](C)O)[C@@H](C)O)C(=O)N[C@@H](CCCCN)C(=O)N[C@@H](C)C(=O)N[C@@H](C)C(=O)N[C@@H](CCCCN)C(=O)N[C@@H](CO)C(=O)N[C@@H](C)C(=O)NCC(=O)N[C@@H](CCC(N)=O)C(=O)N[C@@H](CO)C(=O)N[C@H](C(=O)N[C@@H](CC(C)C)C(=O)N[C@@H](CO)C(=O)N[C@H](C(=O)N[C@@H](CC(C)C)C(=O)N[C@@H](CO)C(=O)N[C@H]1CSSC[C@@H](C(=O)O)NC(=O)[C@H]([C@@H](C)O)NC(=O)[C@H](CC(N)=O)NC(=O)[C@H](CO)NC(=O)[C@H](CC(C)C)NC(=O)[C@H](CCCCN)NC1=O)[C@@H](C)O)C(C)C [SFLTTFKDLAIKAAKSAGQSVLSTLSCKLSNTC]

MIC [17]: 0.6 µM (≈ 1.51 µg/mL) | MIC [18]: 1.2 µM (≈ 3.02 µg/mL) | MIC [19]: 1.2 µM (≈ 3.02 µg/mL) | MIC [20]: 0.6 µM (≈ 1.51 µg/mL) | MIC [5]: 1.3 µM (≈ 3.27 µg/mL) | MIC [6]: 9.9 µM (≈ 24.9 µg/mL) | MIC [21]: 1.2 µM (≈ 3.02 µg/mL)
SMILES: CC[C@H](C)[C@H](NC(=O)CNC(=O)[C@H](CCCN=C(N)N)NC(=O)[C@H](Cc1ccc(O)cc1)NC(=O)[C@H](CC(C)C)NC(=O)[C@H](CCCCN)NC(=O)CNC(=O)[C@H](Cc1ccccc1)NC(=O)[C@@H](N)Cc1c[nH]c2ccccc12)C(=O)N[C@H](C(=O)N[C@@H](CCCCN)C(=O)N[C@H](C(=O)N[C@H](C(=O)N[C@@H](CCCCN)C(=O)N[C@@H](CCCCN)C(=O)N[C@H](C(=O)N[C@@H](CCCCN)C(=O)NCC(=O)N[C@@H](CC(C)C)C(=O)N[C@@H](CC(C)C)C(=O)N[C@@H](CCCCN)C(=O)NCC(=O)O)C(C)C)C(C)C)C(C)C)[C@@H](C)O [WFGKLYRGITKVVKKVKGLLKG]

Further lines, the compound ahead of its results:

SMILES: CC[C@H](C)[C@H](NC(=O)[C@H](Cc1cnc[nH]1)NC(=O)[C@H](CCCCN)NC(=O)[C@H](CC(C)C)NC(=O)[C@H](CCCCN)NC(=O)[C@H](CO)NC(=O)[C@H](CCSC)NC(=O)[C@H](Cc1c[nH]c2ccccc12)NC(=O)[C@H](CCCCN)NC(=O)CN)C(=O)N[C@@H](CC(C)C)C(=O)N[C@@H](CCCCN)C(N)=O [GKWMSKLKHILK]
MIC [3]: 3.7 µM (≈ 5.43 µg/mL) | MIC [4]: ≥ 45 µM | MIC [5]: > 100 µM | MIC [6]: > 100 µM

SMILES: CSCC[C@H](N)C(=O)N[C@@H](CO)C(=O)N[C@@H](C)C(=O)N[C@@H](CCC(=O)O)C(=O)N[C@H](C(=O)N[C@H](C(=O)N[C@H](C(=O)N[C@@H](CCCCN)C(=O)N[C@@H](CCCCN)C(=O)N[C@H](C(=O)N[C@@H](CC(=O)O)C(=O)NCC(=O)N[C@@H](CC(=O)O)C(=O)N[C@@H](C)C(=O)N[C@@H](CC(C)C)C(=O)N[C@@H](CCC(=O)O)C(=O)N[C@@H](CC(C)C)C(=O)NCC(=O)O)C(C)C)C(C)C)C(C)C)C(C)C [MSAEVVVKKVDGDALELG]
MIC [1]: ≥ 138 µM | MIC [2]: > 138 µM

SMILES: CC(C)C[C@H](NC(=O)[C@H](Cc1ccccc1)NC(=O)[C@@H]1CCCN1C(=O)[C@H](Cc1c[nH]c2ccccc12)NC(=O)[C@H](Cc1c[nH]c2ccccc12)NC(=O)[C@H](Cc1c[nH]c2ccccc12)NC(=O)[C@@H]1CCCN1C(=O)[C@H](Cc1ccccc1)NC(=O)[C@H](CCCNC(=N)N)NC(=O)[C@H](CCCNC(=N)N)NC(=O)[C@@H](N)C(C)C)C(=O)N[C@@H](CCCNC(=N)N)C(=O)N[C@@H](CCCNC(=N)N)C(=O)O [VRRFPWWWPFLRR]
MIC [12]: 8.41 µM (≈ 16 µg/mL) | MIC [13]: ≥ 33.6 µM | MIC [14]: 16.8 µM (≈ 32 µg/mL) | MIC [15]: 8.41 µM (≈ 16 µg/mL)

SMILES: CC(C)C[C@H](NC(=O)[C@H](CCCCN)NC(=O)[C@H](CCCCN)NC(=O)[C@H](C)NC(=O)[C@H](CC(C)C)NC(=O)[C@H](CCCCN)NC(=O)[C@H](CCCCN)NC(=O)[C@H](C)NC(=O)[C@H](Cc1ccccc1)NC(=O)[C@H](CCCCN)NC(=O)[C@H](CCCCN)NC(=O)[C@H](Cc1ccccc1)NC(=O)[C@H](CC(C)C)NC(=O)[C@H](CCCCN)NC(=O)[C@@H](NC(=O)[C@H](CCCCN)NC(=O)[C@H](CCCCN)NC(=O)[C@H](CCCCN)NC(=O)[C@H](Cc1ccccc1)NC(=O)[C@H](CC(C)C)NC(=O)[C@H](CCCCN)NC(=O)[C@H](Cc1c[nH]c2ccccc12)NC(=O)[C@@H](N)CCCCN)[C@@H](C)O)C(=O)O [KWKLFKKKTKLFKKFAKKLAKKL]
MIC [11]: > 69.5 µM | MIC [10]: 3.47 µM (≈ 10 µg/mL)

SMILES: CC[C@H](C)[C@H](NC(=O)[C@@H]1CCCN1C(=O)[C@H](CC(C)C)NC(=O)[C@H](Cc1ccc(O)cc1)NC(=O)[C@H](Cc1cnc[nH]1)NC(=O)[C@H](C)NC(=O)CNC(=O)[C@H](C)NC(=O)[C@@H](NC(=O)[C@H](C)NC(=O)[C@H](CS)NC(=O)[C@H](C)NC(=O)[C@@H]1CCCN1C(=O)CNC(=O)[C@H](CS)NC(=O)[C@@H](NC(=O)[C@@H](NC(=O)CNC(=O)CNC(=O)[C@@H](N)C(C)C)[C@@H](C)O)[C@@H](C)CC)C(C)C)C(=O)O [VGGTICGPACAVAGAHYLPI]
MIC [16]: ≥ 128 µM
